Experimental findings from PubChem BioAssay (NCI) are described below.

The structures appear in SMILES notation.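 Following 48 hours of exposure in 96-well plates, responses at five concentrations were used to interpolate endpoints linearly. TGI is the concentration that stops growth completely.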 Some results are limits rather than exact numbers.

Experiment in all cases: growth of human tumour cells (NCI), 48 h
The subject of experiment [1] is SR leukemia.
For experiment [2], the system named is MCF7 breast.
In experiment [3] the test system is 786-0 renal.
Experiment [4] concerns UACC-257 melanoma.
Experiment [5] relates to T-47D breast.
The subject of experiment [6] is A498 renal.
Experiment [7] has as its system RPMI-8226 leukemia.
The test system of experiment [8] is SK-MEL-2 melanoma.
Experiment [9] deals with IGROV1 ovarian.
For experiment [10], the system named is HOP-62 NSCLC.
The subject of experiment [11] is MALME-3M melanoma.
In experiment [12] the test system is OVCAR-8 ovarian.
In experiment [13] the test system is RXF 393 renal.
The subject of experiment [14] is UACC-62 melanoma.
Experiment [15] has as its system HS 578T breast.
Experiment [16] has as its system MDA-N.
For experiment [17], the system named is OVCAR-4 ovarian.
For experiment [18], the system named is CAKI-1 renal.

With `O=C1NC2(CCN(CCc3ccccc3)CC2)Oc2ccccc21`, the TGI in experiment [1], in [2], in [3], in [4], in experiment [5] and in experiment [6] was more than 100 µM in each case. The TGI in experiment [7], in experiment [8], in experiment [9], in experiment [10], in experiment [11] and in experiment [12] was more than 100 µM each time. In addition, the TGI in [13] is more than 100 µM; in [14] it was more than 100 µM; in experiment [15] it was 50.7 µM; in experiment [16], more than 100 µM; in experiment [17] it was more than 100 µM; in experiment [18], more than 100 µM.
On to `COCOC1/C=C/CCCCC(=O)C(C)C#CC1` (stereo unspecified), for which the TGI in experiment [1] came to 8.02 µM; in experiment [2], 14.8 µM; in [3], 5.44 µM; in [4], 19.5 µM; in experiment [5], 6.39 µM; in experiment [6] it was 24.6 µM. Moreover, the TGI is 5.96 µM in [7]; 21.2 µM in experiment [8]; 18.1 µM in [9]; 33.9 µM in experiment [10]; 4.95 µM in experiment [11]; 17.7 µM in [12]. The TGI is 9.19 µM in experiment [13]; 15.8 µM in [14]; more than 73.7 µM in experiment [15]; 27 µM in [16]; 24.4 µM in experiment [17]; 13.7 µM in experiment [18].
